According to patent US7638532B2, “3-aryloxy-8-aza-bicyclo[3.2.1]oct-6-ene derivatives and their use as monoamine neurotransmitter re-uptake inhibitors” (NeuroSearch A/S, priority 2005, dated 2009):
Structures can show the parent of a compound that is named as a salt. Where two headings read alike, the source gives them in different places.

Experiments:
[1] = target: T1, reuptake of dopamine (DA) in synaptosomes (Rattus norvegicus, UniProt P23977); experiment: Inhibition of dopamine (DA) reuptake in synaptosomes; format: biochemical
T1 construct: in synaptosomes as described in WO 97/16451; from tissue
T1 sequence (P23977 whole entry): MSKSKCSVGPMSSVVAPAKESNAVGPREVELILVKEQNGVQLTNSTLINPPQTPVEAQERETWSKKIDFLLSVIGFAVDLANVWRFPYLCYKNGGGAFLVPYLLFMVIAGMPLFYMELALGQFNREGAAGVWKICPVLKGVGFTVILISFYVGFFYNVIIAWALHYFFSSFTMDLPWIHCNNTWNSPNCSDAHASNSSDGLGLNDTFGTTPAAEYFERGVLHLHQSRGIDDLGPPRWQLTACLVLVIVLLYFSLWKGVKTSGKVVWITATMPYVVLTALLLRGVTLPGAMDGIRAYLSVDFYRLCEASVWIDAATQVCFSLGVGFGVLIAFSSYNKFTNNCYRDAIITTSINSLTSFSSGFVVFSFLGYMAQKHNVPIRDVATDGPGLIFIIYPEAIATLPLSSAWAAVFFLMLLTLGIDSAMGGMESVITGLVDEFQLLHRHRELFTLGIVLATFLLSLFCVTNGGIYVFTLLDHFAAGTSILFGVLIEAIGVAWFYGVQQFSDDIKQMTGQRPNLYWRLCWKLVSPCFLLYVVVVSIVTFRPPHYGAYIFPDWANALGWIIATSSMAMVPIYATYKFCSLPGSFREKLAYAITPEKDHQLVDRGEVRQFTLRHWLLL

[2] = target: T2, reuptake of noradrenaline (NA) in synaptosomes (Rattus norvegicus, UniProt Q9WTR4); experiment: Inhibition of noradrenaline (NA) reuptake in synaptosomes; format: biochemical
T2 construct: in synaptosomes as described in WO 97/16451; from tissue
T2 sequence (Q9WTR4 1-597): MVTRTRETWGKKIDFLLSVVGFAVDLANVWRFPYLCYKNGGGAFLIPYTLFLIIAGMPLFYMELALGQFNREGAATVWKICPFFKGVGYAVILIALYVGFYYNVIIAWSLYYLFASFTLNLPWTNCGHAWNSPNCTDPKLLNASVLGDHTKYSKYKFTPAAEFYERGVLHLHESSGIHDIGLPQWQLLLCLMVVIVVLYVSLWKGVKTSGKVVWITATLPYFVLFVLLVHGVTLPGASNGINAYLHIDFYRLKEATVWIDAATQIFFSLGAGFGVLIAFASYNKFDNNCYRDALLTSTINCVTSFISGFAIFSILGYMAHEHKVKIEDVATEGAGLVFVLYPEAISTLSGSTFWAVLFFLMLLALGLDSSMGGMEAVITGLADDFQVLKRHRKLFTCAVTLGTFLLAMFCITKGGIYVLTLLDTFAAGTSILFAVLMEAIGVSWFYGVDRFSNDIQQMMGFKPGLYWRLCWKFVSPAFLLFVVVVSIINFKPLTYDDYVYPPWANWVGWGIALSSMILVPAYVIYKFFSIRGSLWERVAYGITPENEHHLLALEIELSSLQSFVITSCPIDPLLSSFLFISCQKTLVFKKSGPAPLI

[3] = target: T3, reuptake of serotonine (5-HT) in synaptosomes (Rattus norvegicus, UniProt P31652); experiment: Inhibition of serotonine (5-HT) reuptake in synaptosomes; format: biochemical
T3 construct: in synaptosomes as described in WO 97/16451; from tissue
T3 sequence (P31652 whole entry): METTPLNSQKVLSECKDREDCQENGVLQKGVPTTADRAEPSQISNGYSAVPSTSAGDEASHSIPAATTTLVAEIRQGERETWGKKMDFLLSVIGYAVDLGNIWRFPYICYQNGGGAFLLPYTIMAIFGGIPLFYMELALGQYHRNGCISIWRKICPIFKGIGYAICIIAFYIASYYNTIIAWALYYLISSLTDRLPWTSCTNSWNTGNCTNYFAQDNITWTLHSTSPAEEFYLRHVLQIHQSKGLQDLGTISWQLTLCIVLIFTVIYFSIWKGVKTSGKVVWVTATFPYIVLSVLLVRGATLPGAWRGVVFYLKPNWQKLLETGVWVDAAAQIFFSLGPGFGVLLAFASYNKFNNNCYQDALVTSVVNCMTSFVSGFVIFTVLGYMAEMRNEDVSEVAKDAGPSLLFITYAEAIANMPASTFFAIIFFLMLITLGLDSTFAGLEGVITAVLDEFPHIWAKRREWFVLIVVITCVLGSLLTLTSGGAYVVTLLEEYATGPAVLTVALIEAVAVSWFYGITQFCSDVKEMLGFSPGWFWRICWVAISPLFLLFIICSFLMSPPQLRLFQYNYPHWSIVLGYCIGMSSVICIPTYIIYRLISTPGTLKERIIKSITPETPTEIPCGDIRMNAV

Clc1ccc(O[C@@H]2C[C@H]3C=C[C@@H](C2)N3)cc1Cl (as salt: hydrochloric acid salt) [1st compound of method A, exo-3-(3,4-Dichloro-phenoxy)-8-aza-bicyclo[3.2.1]oct-6-ene hydrochloric acid salt]
melting point: 200 °C (dec.)

Clc1ccc(O[C@@H]2C[C@H]3C=C[C@@H](C2)N3)cc1Br (as salt: hydrochloric acid salt) [2nd compound of method A, exo-3-(3-Bromo-4-chloro-phenoxy)-8-aza-bicyclo[3.2.1]oct-6-ene hydrochloric acid salt]
melting point: 240 to 243 °C

Clc1ccc(O[C@@H]2C[C@H]3C=C[C@@H](C2)N3)cc1Cl [1st compound of method A, exo-3-(3,4-Dichloro-phenoxy)-8-aza-bicyclo[3.2.1]oct-6-ene hydrochloric acid salt]
IC50 [1]: 0.22 µM
IC50 [2]: 0.027 µM
IC50 [3]: 0.0025 µM

Clc1ccc(O[C@@H]2C[C@H]3C=C[C@@H](C2)N3)cc1Br [2nd compound of method A, exo-3-(3-Bromo-4-chloro-phenoxy)-8-aza-bicyclo[3.2.1]oct-6-ene hydrochloric acid salt]
IC50 [1]: 0.17 µM
IC50 [2]: 0.11 µM
IC50 [3]: 0.021 µM

COc1ccc2cc(O[C@@H]3C[C@H]4C=C[C@@H](C3)N4C)ccc2c1 [3rd compound of method B, exo-3-(6-Methoxy-naphthalen-2-yloxy)-8-methyl-8-aza-bicyclo[3.2.1]oct-6-ene free base]
IC50 ([1]; 3H-DA, synaptosomes, read-out: DA-uptake IC50): 0.11 µM
IC50 ([2]; 3H-NA, synaptosomes, read-out: NA-uptake IC50): 0.17 µM
IC50 ([3]; 3H-5-HT, synaptosomes, read-out: 5-HT-uptake IC50): 0.48 µM
melting point: 240 °C (dec.)
